# Key:
# [1] = system: olfactory bulb inflammation, GFAP (reactive astrocytes); test: Olfactory bulb injury model (transection), GFAP immunohistochemistry; type: in vivo, Sprague-Dawley rat; details: rat olfactory bulb, days 2-14
# Description: The anti-inflammatory effects of EARA-16 (SEQ ID NO: 89) and RADA-16 (SEQ ID NO: 1) were examined using an olfactory bulb injury model. Levels of inflammation were assayed through immunohistochemical staining for glial fibrillary acidic protein (GFAP) as an indicator of reactive astrocytes.
# In brief, the olfactory bulbs of adult Sprague-Dawley rats were unilaterally transected and the cuts were then treated with either saline as a control, or one of RADA-16 (SEQ ID NO: 1) or EARA-16 (SEQ ID NO: 89) solutions (each used at 1% and 3%). The SAP materials were injected into the cuts post transection at the time of surgery. After 2, 7 or 14 days, the animals were sacrificed.
# A more detailed protocol is as follows: adult Sprague-Dawley rats were anesthetized with a mixture of ketamine (80 mg/kg, i. p.) and xylazine (8 mg/kg, i. p.). The head was shaved and a thorough disinfection of the head surface was carried out with iodine 5% solution. The bilateral olfactory bulbs were exposed by drilling two burr holes (2 mm diameter, 8 mm anterior to the bregma) on either side at a distance of 2 mm from the midline of the frontal bone in the region overlying the olfactory bulbs. A cataract knife with a blunted end and one sharpened edge was used for surgery. The cut was performed on the middle of olfactory bulb. The blunted edge of the knife was inserted along the middle line of the olfactory bulb to prevent damage of the sagittal sinus, until the tip of the knife lightly touched the bottom of the brain without penetration of the dura. The knife was then moved laterally to transect the bulb until it reached the lateral edge of the hole. The knife was then rotated and pulled out to have a complete cut of the bulb at lateral side. This procedure was modified from the method described in several previous studies attempting to isolate the olfactory bulb from other parts of the brain (Ahrens & Freeman 2001; Allison 1953; Chaput 1983; Freeman 1968; Koliatsos et al 2004; Munirathinam et al 1997).
# After performing the cut, one of the solutions was used to treat the injury site: either 10 μl saline (control group) or the EARA-16 (SEQ ID NO: 89) or RADA-16 (SEQ ID NO: 1) SAP (at a concentration of 1% and 3%) was injected evenly into the wound site using a self-constructed hydraulic pressure injection system without micro syringe. This technique was modified from similar methods as described by Bullier and others (Bullier et al 1980; Fish & Rhoades 1981; Kratskin et al 1997; Meyers & Snow 1981; Price et al 1977; Shipley 1982). Care was taken to control the speed of the injection of the saline or the SAP. After the injection, the wound was closed and the animals were placed in a warm place for recovery before they were brought back to their home cages. […]
# [2] = system: liver inflammation, ED-1 reactivity (macrophage activation); test: Rat liver injury model (punch biopsy), ED-1 immunohistochemistry; type: in vivo, Sprague-Dawley rat; details: 4 mm punch biopsy, all time-points observed, compared to saline or acid controls
# Description: The anti-inflammatory effects of EARA-16 (SEQ ID NO: 89) and RADA-16 (SEQ ID NO: 1) SAPs were examined using a liver injury model. Levels of inflammation were assayed through immuno-histochemical ED-1 reactivity (ED-1 serves as a marker of macrophage activation).
# Pigs or adult Sprague-Dawley rats were anesthetized and their intraperitoneal cavities were opened under aseptic conditions. For each animal, the liver was exposed and then subjected to an 8 mm (pig) or 4 mm (rat) punch biopsy.
# The punch sites were then cauterized or treated with acid (for pH control), saline, or RADA-16 (SEQ ID NO: 1) or EARA-16 (SEQ ID NO: 89) solutions. The animals were allowed to survive for up to 14 days. The animals were then sacrificed and their livers were harvested and sectioned. An ED-1 antibody was used to determine the level of inflammation and activation of macrophages in the liver via immunohistochemistry (IHC).
sequence,measurement,setting,value
"RADARADARADARADA [RADA-16, self-assembling peptide]",time course of reactive astrocyte activation / inflammation (GFAP),[1]; 1% solution,increased activation of reactive astrocytes on day 7 which subsequently reduced by day 14
same,time course of reactive astrocyte activation / inflammation (GFAP),[1]; 3% solution,increased activation of reactive astrocytes on day 7 which subsequently reduced by day 14
same,levels of inflammation in liver (ED-1 IHC),[2],markedly reduced the levels of inflammation

# From patent US20240051997A1, “SAP AND PEPTIDOMIMETIC COMPOSITIONS FOR REDUCING SYMPTOMS OF INFLAMMATION” (Arch Biosurgery, Inc., priority 2018, published 2024)
